Patent US20080181940A1, “Method For Accelerating Expression of CPT-1” (Amorepacific Corporation, priority 2003, published 2008)

How the values were obtained:
[1] = tested on: adipocytes of male SD rat; assay: Acceleration of oxidation of neutral fat in adipocytes (glycerol released into the medium); format: cell-based; settings: added in 10 μmol unit, control = 100%, FIG. 1
Method: Epididymal adipose tissues obtained from male SD rat were cut to small pieces, and 0.1% of collagenase (in DMEM without phenol red) was added then cultured for 2 hours at 37° C., and then filtered to obtain adipocyte.
A control was cultured in a medium not containing the composition of the present invention (experimental material). In the experimental samples, genistein and/or L-carnitine was added in 10 μmol unit. Results are calculated relatively converting the control to be 100%. Degrees of oxidation of fats are determined by measuring the concentration of glycerol separated into the medium from the adipocytes.
Experiments were performed by taking cell cultures prepared by adding colorless DMEM (Dulbeco's modified eagles medium) containing 0.5% bovine serum albumin (BAS) without fatty acid to the adipocytes. The amount of glycerol was measured with color reaction method using GPO-trinder kit purchased from Sigma (St. Louis, Mo., U.S.A) and absorption in 540 nm was measured with ELISA reader.

[2] = tested on: obesity induced by high fat diet; assay: Body weight and food consumption of rats on high fat diet, 8 weeks of dieting; format: in vivo, Sprague-Dawley white male rat; settings: for Body weight after dieting: after 8 weeks, high fat diet + 0.2% of each substance in diet, n = 12; for increase of body weight compared with control group with high fat diet: words, 0.2% in high fat diet, 8 weeks
From the text: In order to verify the effects of the present composition to the metabolism of lipid in the fat animals induced by dieting high fat diet, Sprague-Dawley white male rat model was selected. In order to verify the effects of genistein, diadzein and glycitein to the obesity induced from high fat diet, rats of 6 weeks old were adapted for a week and assigned 12 rats for each experimental group. Experimental groups are as follows: (1) normal fat diet; (2) high fat diet; (3) high fat diet+genistein 0.2%; (4) high fat diet+L-carnitine 0.2%; (5) high fat diet+genistein 0.2%+L-carnitine 0.2%; (6) high fat diet+diadzein 0.2%; (7) high fat diet+diadzein 0.2%+L-carnitine 0.2%; (8) high fat diet+glycitein 0.2%; and (9) high fat diet+glycitein 0.2%+L-carnitine 0.2%, and the rats were […] for 8 weeks. […] The amount of diet consumed and body weight was measure three times per week during dieting.

[3] = tested on: obesity induced by high fat diet; assay: Weight of epididymal adipose tissue of rats after 8 weeks of high fat diet; format: in vivo, Sprague-Dawley white male rat; settings: for Weight of epididymal adipose: after 8 weeks, high fat diet + 0.2% of each substance in diet, n = 12; for weight of epididymal adipose compared with control group with high fat diet: words, 0.2% in high fat diet, 8 weeks
From the text: In order to verify the effects of the present composition to the metabolism of lipid in the fat animals induced by dieting high fat diet, Sprague-Dawley white male rat model was selected. In order to verify the effects of genistein, diadzein and glycitein to the obesity induced from high fat diet, rats of 6 weeks old were adapted for a week and assigned 12 rats for each experimental group. Experimental groups are as follows: (1) normal fat diet; (2) high fat diet; (3) high fat diet+genistein 0.2%; (4) high fat diet+L-carnitine 0.2%; (5) high fat diet+genistein 0.2%+L-carnitine 0.2%; (6) high fat diet+diadzein 0.2%; (7) high fat diet+diadzein 0.2%+L-carnitine 0.2%; (8) high fat diet+glycitein 0.2%; and (9) high fat diet+glycitein 0.2%+L-carnitine 0.2%, and the rats were dieted for 8 weeks. Basic experimental diet was purified AIN-93G diet, and high fat diet was prepared to have fat occupy 36% of the total energy (18% of the total diet), normal fat diet was prepared to have fat occupy 17% of the total energy (7% of the total diet).
After 8 weeks of dieting with the groups of normal fat diet, high fat diet, high fat diet+genistein (0.2%), high fat diet+L-carnitine (0.2%), high fat diet+genistein (0.2%)+L-carnitine (0.2%), high fat diet+diadzein (0.2%), high fat diet+diadzein (0.2%)+L-carnitine (0.2%), high fat diet+glycitein (0.2%) and high fat diet+glycitein (0.2%)+L-carnitine (0.2%), the rats were sacrificed to obtain epididymal adipose tissues. The above obtained epididymal adipose tissues were washed with saline and moistures were removed on a filter bed, then weights were measured.

CPT-1 = assay: Expression of CPT-1 mRNA in liver by northern blotting and densitometry; format: in vivo, rat; settings: 8 weeks
From the text: After 8 weeks of dieting with following four (4) groups of high fat diet, high fat diet+genistein (0.2%), high fat diet+genistein (0.2%)+L-carnitine (0.2%) and high fat diet+genistein (0.4%), the rats were sacrificed to obtain liver tissues thereof. After homogenizing the liver tissues, RNA were extracted from the tissues using TRIZOL (Life Technologies, grand Island, N.Y., USA) consisting of phenol and guanidine isothiocyanate. Degree of expression of CPT-1 mRNA from the above extracted RNA was measured by northern blotting test, and expressed quantitatively by densitometry as shown in FIGS. 2a and 2b.

[4] = cited from earlier work

Structure (SMILES)	oxidation of fatty acids increased compared with that of the control [1] [times]	Body weight after dieting [2] [g]	increase of body weight compared with control group with high fat diet [2]	Weight of epididymal adipose [3] [g]	weight of epididymal adipose compared with control group with high fat diet [3]	expression of CPT-1 compared with the group of high fat diet (CPT-1; 0.2% of each substance in high fat diet, FIG. 2b)	dependence of the expression of CPT-1 on concentration (CPT-1; genistein 0.2% vs 0.4% in high fat diet)	side effects of an excessive quantity, female rats ([4]; female rats)	side effects of an excessive quantity, male rats ([4]; male rats)
C[N+](C)(C)CC(O)CC(=O)[O-] [L-carnitine, β-hydroxy-γ-trimethylammonium butyric acid]	2.07	465.1 ± 31.8	almost the same	7.9 ± 0.45	almost the same				
O=c1c(-c2ccc(O)cc2)coc2cc(O)ccc12 [diadzein]		441.3 ± 19.4	also small	6.1 ± 0.35	also small				
O=c1c(-c2ccc(O)cc2)coc2cc(O)cc(O)c12 [genistein]	1.92	433.5 ± 19.4	small	5.2 ± 0.67	small	increased	increases positively according to the concentration of genistein	disorder of secretion	reduction of spermatozoa and sperm
COc1cc2c(=O)c(-c3ccc(O)cc3)coc2cc1O [glycitein]		446.4 ± 21.6	also small	6.3 ± 0.41	also small				
